Results published in ChEMBL document CHEMBL3580643, “Structure-Activity Relationships of Neplanocin A Analogues as S-Adenosylhomocysteine Hydrolase Inhibitors and Their Antiviral and Antitumor Activities” (J Med Chem, 2015).
pEC50, pIC50: −log10 of the molar value.

Experiments:
[1] = system: HCT-116; test: Cytotoxicity against human HCT116 cells assessed as inhibition of cell proliferation after 72 hrs by sulforhodamine B assay; assay type: functional, cell-based; conditions: HCT-116, 72 h
[2] = Cytotoxicity against human SKHEP1 cells assessed as inhibition of cell proliferation after 72 hrs by sulforhodamine B assay; assay type: functional, cell-based; conditions: SK-HEP1, 72 h
[3] = Cytotoxicity against human SNU638 cells assessed as inhibition of cell proliferation after 72 hrs by sulforhodamine B assay; assay type: functional, cell-based; conditions: SNU-638, 72 h
[4] = system: A549; test: Cytotoxicity against human A549 cells assessed as inhibition of cell proliferation after 72 hrs by sulforhodamine B assay; assay type: functional, cell-based; conditions: A549, 72 h
[5] = system: MDA-MB-231; test: Cytotoxicity against human MDA-MB-231 cells assessed as inhibition of cell proliferation after 72 hrs by sulforhodamine B assay; assay type: functional, cell-based; conditions: MDA-MB-231, 72 h
[6] = system: PC-3; test: Cytotoxicity against human PC3 cells assessed as inhibition of cell proliferation after 72 hrs by sulforhodamine B assay; assay type: functional, cell-based; conditions: PC-3, 72 h
[7] = target: Adenosylhomocysteinase (Homo sapiens, UniProt P23526); test: Inhibition of recombinant human placental AdoHcy hydrolase expressed in Escherichia coli BL21 using AdoHcy as substrate preincubated for 10 mins followed by substrate addition measured after 20 mins by DTNB coupled assay
Adenosylhomocysteinase, sequence (P23526 whole entry): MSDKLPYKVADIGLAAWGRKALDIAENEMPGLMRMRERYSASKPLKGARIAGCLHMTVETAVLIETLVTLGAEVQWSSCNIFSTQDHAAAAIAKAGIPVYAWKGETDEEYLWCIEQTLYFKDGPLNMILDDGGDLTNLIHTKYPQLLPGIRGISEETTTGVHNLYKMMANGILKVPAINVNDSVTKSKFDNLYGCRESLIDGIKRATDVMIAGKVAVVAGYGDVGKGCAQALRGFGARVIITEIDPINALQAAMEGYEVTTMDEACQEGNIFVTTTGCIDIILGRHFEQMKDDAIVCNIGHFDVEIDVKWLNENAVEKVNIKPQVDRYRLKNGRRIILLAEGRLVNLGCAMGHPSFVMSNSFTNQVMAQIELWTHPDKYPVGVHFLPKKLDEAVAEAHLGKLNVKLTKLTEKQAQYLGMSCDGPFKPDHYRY

[8] = Cytotoxicity against CB1 cells (unknown origin) assessed as cell viability up to 100 uM after 3 days by MTT assay; assay type: cell-based; conditions: cb1, 72 h
[9] = system: Picornaviridae; test: Antiviral activity against picornavirus infected in CB1 cells assessed as inhibition of viral replication after 3 days by MTT assay; assay type: functional, organism-based; conditions: CB1, 72 h
[10] = system: HeLa; test: Cytotoxicity against human HeLa cells assessed as cell viability up to 40 uM after 3 days by MTT assay; assay type: cell-based; conditions: 72 h
[11] = system: Vesicular stomatitis virus; test: Antiviral activity against vesicular stomatitis virus infected in human HeLa cells assessed as inhibition of viral replication after 3 days by MTT assay; assay type: functional, organism-based; conditions: 72 h

Nc1nccc2c1ncn2[C@@H]1C=C(CO)[C@@H](O)[C@H]1O
pIC50 [1]: 6.59 | pIC50 [2]: 6.14 | pIC50 [3]: 6.04 | pIC50 [4]: 5.85 | pIC50 [5]: 6.52 | pIC50 [6]: 5.03

Nc1ncnc2c1ncn2[C@@H]1C=C(CCO)[C@@H](O)[C@H]1O
pIC50 [1]: 5.76 | pIC50 [2]: 5.21 | pIC50 [3]: 5.64 | pIC50 [4]: 5.05 | pIC50 [5]: 5.58 | pIC50 [6]: < 4.00

CNc1ncnc2c1ccn2[C@@H]1C=C(CO)[C@@H](O)[C@H]1O
pIC50 [1]: < 4.00 | pIC50 [2]: 4.00 | pIC50 [3]: < 4.00 | pIC50 [4]: < 4.00 | pIC50 [5]: 4.31 | pIC50 [6]: < 4.00 | pIC50 [7]: < 4.00

OCC1=C[C@@H](n2ccc3c(O)ncnc32)[C@H](O)[C@@H]1O
pIC50 [1]: < 4.00 | pIC50 [2]: < 4.00 | pIC50 [3]: < 4.00 | pIC50 [4]: < 4.00 | pIC50 [5]: < 4.00 | pIC50 [6]: < 4.00 | pIC50 [7]: < 4.00

Nc1ncnc2c1ccn2[C@@H]1C(F)=C(CO)[C@@H](O)[C@H]1O
pIC50 [1]: 6.03 | pIC50 [2]: 5.86 | pIC50 [3]: 6.02 | pIC50 [4]: 4.77 | Activity [8]: Non-toxic | pEC50 [9]: 5.63 | pIC50 [5]: 6.03 | pIC50 [6]: 5.89 | pIC50 [7]: < 4.00

CNc1ncnc2c1ccn2[C@@H]1C(F)=C(CO)[C@@H](O)[C@H]1O
pIC50 [1]: < 4.00 | pIC50 [2]: < 4.00 | pIC50 [3]: < 4.00 | pIC50 [4]: < 4.00 | pIC50 [5]: < 4.00 | pIC50 [6]: < 4.00 | pIC50 [7]: < 4.00

OCC1=C(F)[C@@H](n2ccc3c(O)ncnc32)[C@H](O)[C@@H]1O
pIC50 [1]: < 4.00 | pIC50 [2]: < 4.00 | pIC50 [3]: < 4.00 | pIC50 [4]: < 4.00 | pIC50 [5]: < 4.00 | pIC50 [6]: < 4.00 | pIC50 [7]: < 4.00

Nc1ncnc2c1ccn2[C@@H]1C=C(CCO)[C@@H](O)[C@H]1O
pIC50 [1]: 4.49 | pIC50 [2]: 4.38 | pIC50 [3]: 4.52 | pIC50 [4]: 4.47 | pIC50 [5]: 4.58 | pIC50 [6]: < 4.00 | pIC50 [7]: < 4.00

Nc1ncnc2c1ncn2[C@@H]1C(F)=C(CCO)[C@@H](O)[C@H]1O
pIC50 [1]: 5.54 | pIC50 [2]: 5.09 | pIC50 [3]: 5.43 | pIC50 [4]: 4.93 | pIC50 [5]: 5.16 | pIC50 [6]: < 4.00 | pIC50 [7]: 6.04

Nc1nccc2c1ncn2[C@@H]1C=C(CCO)[C@@H](O)[C@H]1O
pIC50 [1]: 4.75 | pIC50 [2]: 4.54 | pIC50 [3]: 4.55 | pIC50 [4]: 4.12 | pIC50 [5]: 5.10 | pIC50 [6]: < 4.00 | pIC50 [7]: 5.42

Nc1ncnc2c1ccn2C1C=C(CO)[C@@H](O)[C@H]1O (single isomer, unassigned) [DEAZANEPLANOCIN A]
pIC50 [1]: 4.98 | pIC50 [2]: 5.93 | pIC50 [3]: 5.92 | pIC50 [4]: 5.74 | pIC50 [5]: 6.10 | pIC50 [6]: 5.79 | pIC50 [7]: < 4.00

Nc1ccn([C@@H]2O[C@H](CO)[C@@H](O)[C@@H]2O)c(=O)n1 [CYTARABINE]
pIC50 [1]: 5.62 | pIC50 [2]: 5.67 | pIC50 [3]: 5.40 | pIC50 [4]: 5.92 | pIC50 [5]: 5.86 | pIC50 [6]: 4.30

COc1cc([C@@H]2c3cc4c(cc3[C@@H](O[C@@H]3O[C@@H]5CO[C@@H](C)O[C@H]5[C@H](O)[C@H]3O)[C@H]3COC(=O)[C@H]23)OCO4)cc(OC)c1O [ETOPOSIDE]
pIC50 [2]: 5.55 | pIC50 [3]: 6.52 | pIC50 [4]: 6.40 | pIC50 [5]: 5.11

Nc1ncnc2c1ncn2[C@@H]1C(F)=C(CO)[C@@H](O)[C@H]1O [FLUORO-NEPLANOCIN A]
Activity [10]: Non-toxic | pIC50 [1]: 5.55 | pIC50 [2]: 6.10 | pIC50 [3]: 5.66 | pIC50 [4]: 5.92 | pEC50 [11]: 6.37 | pIC50 [5]: 5.85 | pIC50 [6]: 5.85 | pIC50 [7]: 6.62

Nc1ncnc2c1ncn2[C@@H]1C=C(CO)[C@@H](O)[C@H]1O [NEOPLANOCIN A]
pIC50 [1]: 6.05 | pIC50 [2]: 5.35 | pIC50 [3]: 6.15 | pIC50 [4]: 5.91 | pIC50 [5]: 6.40 | pIC50 [6]: 5.43 | pIC50 [7]: 6.33
